SMILES strings stand for the structures.

The first series deals with Pyricularia oryzae.
Assay: not given
The format is in vivo. The note with it: METHOD 2 (unbanded).
On to `CCc1nsc(NC(=O)Cc2ccc3oc(CC(C)(C)C)nc3c2)c1Cl` [15(A8)], for which the “PYRIOR 1 d Prot/Foir PRCO” value was 81.
For `CCN(C(=O)Cc1ccc2oc(CC(C)(C)C)nc2c1)c1snc(C)c1Cl` [15(C3)], the “PYRIOR 1 d Prot/Foir PRCO” value is 7.
Same read-out and setting: for `Cc1nsc(N(CC(F)(F)F)C(=O)Cc2ccc3oc(CC(C)(C)C)nc3c2)c1Cl` [15(H3)] the value was 46; for `Cc1nsc(NC(=O)Cc2ccc3oc(C4CC4)nc3c2)c1Cl` [21(A3)], 92; for `Cc1nsc(NC(=O)Cc2ccc3oc(C(F)(F)F)nc3c2)c1Cl` [75(A3)], 78.
Same read-out and setting: the result for `Cc1nsc(NC(=O)Cc2ccc3oc(C(F)(F)C(F)F)nc3c2)c1Cl` [79(A3)] reads 98; that for `COCc1nc2cc(CC(=O)Nc3snc(C)c3Cl)ccc2o1` [130(A3)], 93.
As for `CCN(C)c1nc2cc(CC(=O)Nc3snc(C)c3Cl)ccc2o1` [180(A3)], the “PYRIOR 1 d Prot/Foir PRCO” value came out at 42.
Turning to `Cc1nsc(NC(=O)Cc2ccc3oc(-c4c(F)c(F)c(F)c(F)c4F)nc3c2)c1Cl` [287(A3)], the “PYRIOR 1 d Prot/Foir PRCO” value was determined as 19.

The test system of another series is Uncinula necator. Put plainly: Fungicidal test, Uncinula necator (UNCINE) on vines, PRCO. It is filed as in vivo. As to conditions: METHOD 2 (unbanded).
`CCc1nsc(NC(=O)Cc2ccc3oc(CC(C)(C)C)nc3c2)c1Cl` [15(A8)]: the “UNCINE 1 d Prot/Foir PRCO” value came to 100.
In the case of `CCN(C(=O)Cc1ccc2oc(CC(C)(C)C)nc2c1)c1snc(C)c1Cl` [15(C3)], the “UNCINE 1 d Prot/Foir PRCO” value came to 100.
On the same count and under the same terms, the result for `Cc1nsc(N(CC(F)(F)F)C(=O)Cc2ccc3oc(CC(C)(C)C)nc3c2)c1Cl` [15(H3)] reads 63.
Still for that read-out and setting: the result for `Cc1nsc(NC(=O)Cc2ccc3oc(C4CC4)nc3c2)c1Cl` [21(A3)] reads 44; that for `Cc1nsc(NC(=O)Cc2ccc3oc(C(F)(F)F)nc3c2)c1Cl` [75(A3)], 53.
On the same count and under the same terms, the result for `Cc1nsc(NC(=O)Cc2ccc3oc(C(F)(F)C(F)F)nc3c2)c1Cl` [79(A3)] reads 90; that for `COCc1nc2cc(CC(=O)Nc3snc(C)c3Cl)ccc2o1` [130(A3)], 86.
On to `CCN(C)c1nc2cc(CC(=O)Nc3snc(C)c3Cl)ccc2o1` [180(A3)], for which the “UNCINE 1 d Prot/Foir PRCO” value worked out at 42.
The same measure, in the same setting: the result for `Cc1nsc(NC(=O)Cc2ccc3oc(-c4c(F)c(F)c(F)c(F)c4F)nc3c2)c1Cl` [287(A3)] reads 20.

The test system of another series is Meloidogyne incognita. Description: Nematode test, J2 infective juveniles of Meloidogyne incognita, mortality. As to conditions: 12.5 ppm; J2 infective juveniles suspended in solution; mortality after three days.
Protocol: The activities of individual compounds of formula (I) were determined using a variety of pests. With the exception of nematodes, the pests were treated with a liquid composition containing 500 parts per million (ppm) by weight of a compound unless otherwise stated. Each composition was made by dissolving the compound in an acetone and ethanol (50:50 by volume) mixture and diluting the solution with water containing 0.05% by volume of a wetting agent, SYNPERONIC NP8, until the liquid composition contained the required concentration of the compound.
The test procedure for nematodes involved dissolving the compound in an acetone and ethanol (50:50 by volume) mixture and diluting the solution with water to obtain a final concentration of the compound of 12.5 ppm. J2 infective juveniles of Meloidogyne incognita were suspended in the solution in a glass vial and mortality assessed after a period of three days.
With `CCc1nsc(NC(=O)Cc2ccc3oc(CC(C)(C)C)nc3c2)c1Cl` [15(A8)], the “MELGIN = Meloidogyne incognita, grading of mortality (score)” value (“MELGIN = Meloidogyne incognita, grading” for short) was 0 (0 indicates less than 40% mortality).
With `CCN(C(=O)Cc1ccc2oc(CC(C)(C)C)nc2c1)c1snc(C)c1Cl` [15(C3)], the “MELGIN = Meloidogyne incognita, grading” value is 0 (0 indicates less than 40% mortality).
The same measure, in the same setting: the result for `Cc1nsc(N(CC(F)(F)F)C(=O)Cc2ccc3oc(CC(C)(C)C)nc3c2)c1Cl` [15(H3)] reads 0 (0 indicates less than 40% mortality).
Turning to `Cc1nsc(NC(=O)Cc2ccc3oc(C4CC4)nc3c2)c1Cl` [21(A3)], the “MELGIN = Meloidogyne incognita, grading” value is 0 (0 indicates less than 40% mortality).
With `Cc1nsc(NC(=O)Cc2ccc3oc(C(F)(F)F)nc3c2)c1Cl` [75(A3)], the “MELGIN = Meloidogyne incognita, grading” value is on record as 0 (0 indicates less than 40% mortality).
Take `Cc1nsc(NC(=O)Cc2ccc3oc(C(F)(F)C(F)F)nc3c2)c1Cl` [79(A3)]: the “MELGIN = Meloidogyne incognita, grading” value is 0 (0 indicates less than 40% mortality).
For `COCc1nc2cc(CC(=O)Nc3snc(C)c3Cl)ccc2o1` [130(A3)], the “MELGIN = Meloidogyne incognita, grading” value was 0 (0 indicates less than 40% mortality).
The same measure, in the same setting: the result for `CCN(C)c1nc2cc(CC(=O)Nc3snc(C)c3Cl)ccc2o1` [180(A3)] reads 0 (0 indicates less than 40% mortality); that for `Cc1nsc(NC(=O)Cc2ccc3oc(-c4c(F)c(F)c(F)c(F)c4F)nc3c2)c1Cl` [287(A3)], 0 (0 indicates less than 40% mortality).

Another series has as its system Septoria nodorum. Put plainly: Fungicidal test, Septoria nodorum (LEPTNO) on wheat, PRCO. The note with it: METHOD 2 (unbanded). It is filed as in vivo.
Regarding `CCc1nsc(NC(=O)Cc2ccc3oc(CC(C)(C)C)nc3c2)c1Cl` [15(A8)], the “LEPTNO 1 d Prot/Foir PRCO” value was −2.
On to `CCN(C(=O)Cc1ccc2oc(CC(C)(C)C)nc2c1)c1snc(C)c1Cl` [15(C3)], for which the “LEPTNO 1 d Prot/Foir PRCO” value was 93.
The same measure, in the same setting: for `Cc1nsc(N(CC(F)(F)F)C(=O)Cc2ccc3oc(CC(C)(C)C)nc3c2)c1Cl` [15(H3)] the value was 2.
Same read-out and setting: the result for `Cc1nsc(NC(=O)Cc2ccc3oc(C4CC4)nc3c2)c1Cl` [21(A3)] reads 14; that for `Cc1nsc(NC(=O)Cc2ccc3oc(C(F)(F)F)nc3c2)c1Cl` [75(A3)], 27; that for `Cc1nsc(NC(=O)Cc2ccc3oc(C(F)(F)C(F)F)nc3c2)c1Cl` [79(A3)], 14.
As to `COCc1nc2cc(CC(=O)Nc3snc(C)c3Cl)ccc2o1` [130(A3)], the “LEPTNO 1 d Prot/Foir PRCO” value is recorded as 21.
Consider `CCN(C)c1nc2cc(CC(=O)Nc3snc(C)c3Cl)ccc2o1` [180(A3)], for which the “LEPTNO 1 d Prot/Foir PRCO” value came out at 14.
Still for that read-out and setting: for `Cc1nsc(NC(=O)Cc2ccc3oc(-c4c(F)c(F)c(F)c(F)c4F)nc3c2)c1Cl` [287(A3)] the value was −2.

The test system of the next series is Venturia inaequalis. Description: Fungicidal test, Venturia inaequalis (VENTIN) on apples, PRCO. It is filed as in vivo. As to conditions: METHOD 2 (unbanded).
As for `CCc1nsc(NC(=O)Cc2ccc3oc(CC(C)(C)C)nc3c2)c1Cl` [15(A8)], the “VENTIN 1 d Prot/Foir PRCO” value is recorded as 24.
Still for that read-out and setting: for `CCN(C(=O)Cc1ccc2oc(CC(C)(C)C)nc2c1)c1snc(C)c1Cl` [15(C3)] the value was 64; for `Cc1nsc(N(CC(F)(F)F)C(=O)Cc2ccc3oc(CC(C)(C)C)nc3c2)c1Cl` [15(H3)], 0; for `Cc1nsc(NC(=O)Cc2ccc3oc(C4CC4)nc3c2)c1Cl` [21(A3)], 50.
The same measure, in the same setting: for `Cc1nsc(NC(=O)Cc2ccc3oc(C(F)(F)F)nc3c2)c1Cl` [75(A3)] the value was 15.
On the same count and under the same terms, the result for `Cc1nsc(NC(=O)Cc2ccc3oc(C(F)(F)C(F)F)nc3c2)c1Cl` [79(A3)] reads 88.
As to `COCc1nc2cc(CC(=O)Nc3snc(C)c3Cl)ccc2o1` [130(A3)], the “VENTIN 1 d Prot/Foir PRCO” value is reported as 60.
On the same count and under the same terms, the result for `CCN(C)c1nc2cc(CC(=O)Nc3snc(C)c3Cl)ccc2o1` [180(A3)] reads 0; that for `Cc1nsc(NC(=O)Cc2ccc3oc(-c4c(F)c(F)c(F)c(F)c4F)nc3c2)c1Cl` [287(A3)], 8.

The test system of another series is Erysiphe graminis f.sp. tritici. Description: Fungicidal test, Erysiphe graminis f.sp. tritici (ERYSGT) on wheat, PRCO. It is filed as in vivo. As to conditions: 1 d Prot/Foir; METHOD 2 (unbanded).
For the molecule `CCc1nsc(NC(=O)Cc2ccc3oc(CC(C)(C)C)nc3c2)c1Cl` [15(A8)], the “ERYSGT 1 d Prot/Foir PRCO” value was 80.
On the same count and under the same terms, the result for `CCN(C(=O)Cc1ccc2oc(CC(C)(C)C)nc2c1)c1snc(C)c1Cl` [15(C3)] reads 38.
For `Cc1nsc(N(CC(F)(F)F)C(=O)Cc2ccc3oc(CC(C)(C)C)nc3c2)c1Cl` [15(H3)], the “ERYSGT 1 d Prot/Foir PRCO” value worked out at 16.
Turning to `Cc1nsc(NC(=O)Cc2ccc3oc(C4CC4)nc3c2)c1Cl` [21(A3)], the “ERYSGT 1 d Prot/Foir PRCO” value is 35.
For the molecule `Cc1nsc(NC(=O)Cc2ccc3oc(C(F)(F)F)nc3c2)c1Cl` [75(A3)], the “ERYSGT 1 d Prot/Foir PRCO” value was found to be 90.
Still for that read-out and setting: the result for `Cc1nsc(NC(=O)Cc2ccc3oc(C(F)(F)C(F)F)nc3c2)c1Cl` [79(A3)] reads 100; that for `COCc1nc2cc(CC(=O)Nc3snc(C)c3Cl)ccc2o1` [130(A3)], 87; that for `CCN(C)c1nc2cc(CC(=O)Nc3snc(C)c3Cl)ccc2o1` [180(A3)], 29.
On to `Cc1nsc(NC(=O)Cc2ccc3oc(-c4c(F)c(F)c(F)c(F)c4F)nc3c2)c1Cl` [287(A3)], for which the “ERYSGT 1 d Prot/Foir PRCO” value is 34.

In a further series the test system is Puccinia recondita. Description: Fungicidal test, Puccinia recondita (PUCCRT) on wheat, PRCO. The format is in vivo. As to conditions: METHOD 2 (unbanded).
For `CCN(C(=O)Cc1ccc2oc(CC(C)(C)C)nc2c1)c1snc(C)c1Cl` [15(C3)], the “PUCCRT 1 d Prot/Foir PRCO” value was 13.
Regarding `Cc1nsc(N(CC(F)(F)F)C(=O)Cc2ccc3oc(CC(C)(C)C)nc3c2)c1Cl` [15(H3)], the “PUCCRT 1 d Prot/Foir PRCO” value amounted to 29.
`Cc1nsc(NC(=O)Cc2ccc3oc(C4CC4)nc3c2)c1Cl` [21(A3)]: the “PUCCRT 1 d Prot/Foir PRCO” value amounted to 100.
On the same count and under the same terms, the result for `Cc1nsc(NC(=O)Cc2ccc3oc(C(F)(F)F)nc3c2)c1Cl` [75(A3)] reads 94; that for `Cc1nsc(NC(=O)Cc2ccc3oc(C(F)(F)C(F)F)nc3c2)c1Cl` [79(A3)], 100.
For `COCc1nc2cc(CC(=O)Nc3snc(C)c3Cl)ccc2o1` [130(A3)], the “PUCCRT 1 d Prot/Foir PRCO” value is 100.
Same read-out and setting: for `CCN(C)c1nc2cc(CC(=O)Nc3snc(C)c3Cl)ccc2o1` [180(A3)] the value was 69.
Turning to `Cc1nsc(NC(=O)Cc2ccc3oc(-c4c(F)c(F)c(F)c(F)c4F)nc3c2)c1Cl` [287(A3)], the “PUCCRT 1 d Prot/Foir PRCO” value came out at 94.

In the next series the test system is Musca domestica.
Assay: not given
The note with it: 500 ppm by weight; knockdown assessed 15 minutes after treatment.
Take `CCN(C(=O)Cc1ccc2oc(CC(C)(C)C)nc2c1)c1snc(C)c1Cl` [15(C3)]: the “MUSCDO AC = Musca domestica (knockdown), score” value is listed as 9 (9 indicates 80-100% mortality).
On the same count and under the same terms, for `CCN(C)c1nc2cc(CC(=O)Nc3snc(C)c3Cl)ccc2o1` [180(A3)] the value was 0 (0 indicates less than 40% mortality).

The next series relates to Phytophthora infestans lycopersici.
Assay: not given
As to conditions: METHOD 2 (unbanded). It is filed as in vivo.
As to `CCc1nsc(NC(=O)Cc2ccc3oc(CC(C)(C)C)nc3c2)c1Cl` [15(A8)], the “PHYTIN 1 d Prot/Foir PRCO” value is listed as 99.
For `CCN(C(=O)Cc1ccc2oc(CC(C)(C)C)nc2c1)c1snc(C)c1Cl` [15(C3)], the “PHYTIN 1 d Prot/Foir PRCO” value was determined as 97.
On to `Cc1nsc(NC(=O)Cc2ccc3oc(-c4c(F)c(F)c(F)c(F)c4F)nc3c2)c1Cl` [287(A3)], for which the “PHYTIN 1 d Prot/Foir PRCO” value worked out at 3.

For the origin of these results see patent US6544989B2, “Benzazoles: benzoxazole, benzthiazole and benzimidazole derivatives” (Syngenta Limited, priority 1998, dated 2003).
